Reference: patent US10457710B2, “Antimicrobial peptides, their variants and uses” (priority 2015, dated 2019)

Tests used:
Test in all cases: MIC, microdilution, clinical strains
Assay type in all cases: cell-based
[1] = tested on: clinical strains of E. cloacae; conditions: 0.02% BSA, 0.2% acetic acid
Method in brief: (§1)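 Overnight MH agar colonies were suspended in MH broth to 5.0×10^5 cfu/ml, mixed with serial peptide dilutions (0.125–128 μg/ml) and incubated at 37° C for 20 to 24 hours. Yeast MICs were run the same way in potato dextrose broth, and wells were scored visually.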

[2] = tested on: clinical strains of E. coli; conditions: microdilution, Muller Hinton broth-cation adjusted, 0.02% BSA, 0.2% acetic acid
Method in brief: as §1

[3] = tested on: clinical strains of K. pneumoniae; conditions: 0.02% BSA, 0.2% acetic acid
Method in brief: as §1

[4] = tested on: clinical strains of P. aeruginosa; conditions: 0.02% BSA, 0.2% acetic acid
Method in brief: as §1

[5] = tested on: clinical strains of Proteus mirabilis; conditions: 0.02% BSA, 0.2% acetic acid
Method in brief: as §1

[6] = tested on: clinical strains of S. aureus; conditions: 0.02% BSA, 0.2% acetic acid
Method in brief: as §1

[7] = tested on: clinical strains of S. pneumoniae; conditions: 0.02% BSA, 0.2% acetic acid
Method in brief: as §1

[8] = tested on: clinical strains of Serratia marcescens; conditions: 0.02% BSA, 0.2% acetic acid
Method in brief: as §1

[9] = tested on: clinical strains of A. johnsonii; set-up: unit: μg/ml; conditions: Acinetobacter johnsonii strain 1, Muller Hinton broth-cation adjusted, 0.02% BSA, 0.2% acetic acid
Experimental: (§2) Minimum inhibition concetrations (MICs) were determined against Escherichia coli (ATCC 25922), Staphylococcus aureus (ATCC 25923), Klebsiella pneumoniae (ATCC 10031) and Pseudomonas aeruginosa (ATCC 27853). Also clinical strains of E. coli, K. pneumoniae, E. cloacae, P. aeruginosa, Serratia marcescens, Proteus mirabilis, S. pneumoniae, Acinetobacter baumannii, A. johnsonii and S. aureus were used for MICs assays. Additionally, clinical strains of yeast including Candida albicans, C. glabrata, C. parapsilosis and C. quillermondiae were used. The susceptibility of these microorganisms to Chain peptides were determined using micro broth dilution assay. Colonies of the respective microorganism from Muller Hinton (MH) agar plates incubated overnight were suspended in MH broth media and final concentration of microorganism was adjusted to 5.0×10^5 cfu/ml. An aliquot of 10 μl of each Chain peptide, or gentamicin, tetracycline as reference antibiotics were added in differing concentrations along with 90 μl of bacterial suspension to 96 well polypropylene plates and incubated at 37° C. for 20 to 24 hours. Concentrations of Chain peptides and reference antibiotics ranged from 0.125 to 128 μg/ml and the MICs were recorded as the lowest concentration with no visual growth of bacteria. Similarly, antifungal MICs were tested in Potato dextrose broth.
(§3) Clinical strains of yeasts including Candida albicans, C. glabrata, C. parapsilosis and C. quillermondiae were also tested with the 12 Chain peptides. The minimum inhibitory concentration (MICs) varied between these peptides and are presented in Tables 4a, 4b, 4c and 5a, 5b, 5c. Peptides Chain 105, 201 and 308 are broad spectrum antimicrobials with MICs between 0.5-32 μg/ml against all the bacteria and yeasts tested, except Serratia marcescens and Proteus mirabilis, against which the MICs were between 64-128 μg/ml. Peptide Chain 306 has narrow spectrum activity against E. coli at 1 μg/ml and for the rest of the bacterial strains at >32 μg/ml (FIG. 10c).

[10] = tested on: clinical strains of Acinetobacter baumannii; set-up: unit: μg/ml; conditions: 0.02% BSA, 0.2% acetic acid
Experimental: as §2, §3

## Gentamicin [reference compound]
[1]; Enterobacter cloacae strain 1, Muller Hinton broth-cation adjusted
  Minimum inhibitory concentration: 0.25
[1]; Enterobacter cloacae strain 2, Muller Hinton broth-cation adjusted
  Minimum inhibitory concentration: 0.25
[1]; Enterobacter cloacae strain 3, Muller Hinton broth-cation adjusted
  Minimum inhibitory concentration: 0.25
[1]; Enterobacter cloacae strain 4, Muller Hinton broth-cation adjusted
  Minimum inhibitory concentration: 0.25
[1]; Enterobacter cloacae strain 5, Muller Hinton broth-cation adjusted
  Minimum inhibitory concentration: 0.25
[2]; Escherichia coli strain 1
  Minimum inhibitory concentration: 0.5
[2]; Escherichia coli strain 2
  Minimum inhibitory concentration: 0.5
[2]; Escherichia coli strain 3
  Minimum inhibitory concentration: 1
[2]; Escherichia coli strain 4
  Minimum inhibitory concentration: 1
[2]; Escherichia coli strain 5
  Minimum inhibitory concentration: 1
[3]; Klebsiella pneumoniae strain 1, Muller Hinton broth-cation adjusted
  Minimum inhibitory concentration: 2
[3]; Klebsiella pneumoniae strain 2, Muller Hinton broth-cation adjusted
  Minimum inhibitory concentration: 0.25
[3]; Klebsiella pneumoniae strain 3, Muller Hinton broth-cation adjusted
  Minimum inhibitory concentration: 2
[3]; Klebsiella pneumoniae strain 4, Muller Hinton broth-cation adjusted
  Minimum inhibitory concentration: 2
[3]; Klebsiella pneumoniae strain 5, Muller Hinton broth-cation adjusted
  Minimum inhibitory concentration: 4
[4]; Pseudomonas aeruginosa strain 1, Muller Hinton broth-cation adjusted
  Minimum inhibitory concentration: 1
[4]; Pseudomonas aeruginosa strain 2, Muller Hinton broth-cation adjusted
  Minimum inhibitory concentration: 0.5
[4]; Pseudomonas aeruginosa strain 3, Muller Hinton broth-cation adjusted
  Minimum inhibitory concentration: 0.5
[4]; Pseudomonas aeruginosa strain 4, Muller Hinton broth-cation adjusted
  Minimum inhibitory concentration: 0.5
[4]; Pseudomonas aeruginosa strain 5, Muller Hinton broth-cation adjusted
  Minimum inhibitory concentration: 0.25
[5]; Proteus mirabilis strain 1, Muller Hinton broth-cation adjusted
  Minimum inhibitory concentration: 2
[5]; Proteus mirabilis strain 2, Muller Hinton broth-cation adjusted
  Minimum inhibitory concentration: 2
[5]; Proteus mirabilis strain 3, Muller Hinton broth-cation adjusted
  Minimum inhibitory concentration: >128
[5]; Proteus mirabilis strain 4, Muller Hinton broth-cation adjusted
  Minimum inhibitory concentration: 8
[5]; Proteus mirabilis strain 5, Muller Hinton broth-cation adjusted
  Minimum inhibitory concentration: >128
[6]; Staphylococcus aureus strain 1, Muller Hinton broth-cation adjusted
  Minimum inhibitory concentration: 0.5
[6]; Staphylococcus aureus strain 2, Muller Hinton broth-cation adjusted
  Minimum inhibitory concentration: 0.5
[6]; Staphylococcus aureus strain 3, Muller Hinton broth-cation adjusted
  Minimum inhibitory concentration: 0.5
[6]; Staphylococcus aureus strain 4, Muller Hinton broth-cation adjusted
  Minimum inhibitory concentration: 0.5
[6]; Staphylococcus aureus strain 5, Muller Hinton broth-cation adjusted
  Minimum inhibitory concentration: 0.5
[7]; Streptococcus pneumoniae strain 1, Muller Hinton broth-cation adjusted
  Minimum inhibitory concentration: 2
[7]; Streptococcus pneumoniae strain 2, Muller Hinton broth-cation adjusted
  Minimum inhibitory concentration: 2
[7]; Streptococcus pneumoniae strain 3, Muller Hinton broth-cation adjusted
  Minimum inhibitory concentration: 2
[7]; Streptococcus pneumoniae strain 4, Muller Hinton broth-cation adjusted
  Minimum inhibitory concentration: 2
[7]; Streptococcus pneumoniae strain 5, Muller Hinton broth-cation adjusted
  Minimum inhibitory concentration: 1
[8]; Serratia marcescens strain 1, Muller Hinton broth-cation adjusted
  Minimum inhibitory concentration: 1
[8]; Serratia marcescens strain 2, Muller Hinton broth-cation adjusted
  Minimum inhibitory concentration: 2
[8]; Serratia marcescens strain 3, Muller Hinton broth-cation adjusted
  Minimum inhibitory concentration: 1
[8]; Serratia marcescens strain 4, Muller Hinton broth-cation adjusted
  Minimum inhibitory concentration: 1
[8]; Serratia marcescens strain 5, Muller Hinton broth-cation adjusted
  Minimum inhibitory concentration: 1
[9]
  Minimum inhibitory concentration: 0.25
[10]; Acinetobacter baumannii strain 1, Muller Hinton broth-cation adjusted
  Minimum inhibitory concentration: 0.5
[10]; Acinetobacter baumannii strain 2, Muller Hinton broth-cation adjusted
  Minimum inhibitory concentration: 0.25
[10]; Acinetobacter baumannii strain 3, Muller Hinton broth-cation adjusted
  Minimum inhibitory concentration: 0.5
[10]; Acinetobacter baumannii strain 4, Muller Hinton broth-cation adjusted
  Minimum inhibitory concentration: 0.5
[10]; Acinetobacter baumannii strain 5, Muller Hinton broth-cation adjusted
  Minimum inhibitory concentration: 0.25
